Assay results reported in PubChem BioAssay (NCI).
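96-well plates; 48 h exposure; 5 concentrations. Endpoints by linear interpolation between flanking doses. Not reached: highest tested concentration assigned. Abbreviation: GI50, concentration required for 50% inhibition of growth. Definition used: TGI = concentration required for complete inhibition of growth.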

Columns and labels:
Assay in all cases: DTP human tumour cell line panel, 48 h
[1] = tested on: SF-539 CNS
[2] = tested on: HT29 colon
[3] = tested on: RPMI-8226 leukemia
[4] = tested on: OVCAR-5 ovarian
[5] = tested on: KM12 colon
[6] = tested on: SR leukemia
[7] = tested on: EKVX NSCLC
[8] = tested on: 786-0 renal
[9] = tested on: CCRF-CEM leukemia
[10] = tested on: OVCAR-4 ovarian

CC1C=CC(C(N)C(=O)O)O1 (stereo unspecified)
TGI [1]: > 100 µM | TGI [2]: > 100 µM | TGI [3]: > 100 µM | TGI [4]: > 100 µM | TGI [5]: > 100 µM | TGI [6]: > 100 µM | TGI [7]: > 100 µM | TGI [8]: > 100 µM | TGI [9]: > 100 µM | TGI [10]: > 100 µM

O=C(Nc1cc(F)c(F)cc1C(=O)O)c1ccc(-n2ccnc2)nn1
GI50 [1]: 34.4 µM | TGI [1]: > 100 µM | GI50 [2]: > 100 µM | TGI [2]: > 100 µM | GI50 [3]: > 100 µM | TGI [3]: > 100 µM | GI50 [4]: > 100 µM | TGI [4]: > 100 µM | GI50 [5]: > 100 µM | TGI [5]: > 100 µM | GI50 [6]: 27.9 µM | TGI [6]: > 100 µM | GI50 [7]: > 100 µM | TGI [7]: > 100 µM | GI50 [8]: > 100 µM | TGI [8]: > 100 µM | GI50 [9]: 98.2 µM | TGI [9]: > 100 µM | GI50 [10]: 65.6 µM | TGI [10]: > 100 µM

Oc1ccc2ccccc2c1C=NCc1c(O)ccc2ccccc12
TGI [1]: > 100 µM | TGI [2]: > 100 µM | TGI [3]: > 100 µM | TGI [4]: > 100 µM | TGI [5]: > 100 µM | TGI [6]: > 100 µM | TGI [7]: 70.7 µM | TGI [8]: > 100 µM | TGI [9]: > 100 µM | TGI [10]: > 100 µM

COc1cc2ncnc(Nc3ccc(Oc4ccnc(C)c4)c(C)c3)c2cc1NC(=O)CC1CCSS1 (stereo unspecified)
GI50 [1]: 1.29 µM | TGI [1]: > 10.7 µM | GI50 [3]: 1.14 µM | TGI [3]: 3.31 µM | GI50 [4]: 1.87 µM | TGI [4]: > 50 µM | GI50 [6]: 0.365 µM | TGI [6]: 2.99 µM | GI50 [7]: 1.36 µM | TGI [7]: > 50 µM | GI50 [8]: > 50 µM | TGI [8]: > 50 µM | GI50 [9]: 0.253 µM | TGI [9]: 1.69 µM | GI50 [10]: 1.54 µM | TGI [10]: 24.3 µM

CCCCCCCCCCCCN=C(N)c1ccc(N2CCN(c3ccc(C(N)=NCCCCCCCCCCCC)cc3)CC2)cc1
GI50 [2]: 5.68 µM | TGI [2]: 25.6 µM | GI50 [4]: 7.16 µM | TGI [4]: 14.3 µM | GI50 [5]: 11.7 µM | TGI [5]: 25.1 µM | GI50 [6]: 3.8 µM | TGI [6]: > 50 µM | GI50 [7]: 9.76 µM | TGI [7]: 20.5 µM | GI50 [8]: 6.23 µM | TGI [8]: 15.6 µM | GI50 [9]: 1.56 µM | TGI [9]: 10.9 µM | GI50 [10]: 8.88 µM | TGI [10]: 20.9 µM

Oc1ccc(C(O)(c2ccccc2)c2ccccc2)c2ccccc12
TGI [1]: 4.62 µM | TGI [2]: 14.1 µM | TGI [4]: 5.96 µM | TGI [5]: 8.05 µM | TGI [6]: 7.27 µM | TGI [7]: 26.4 µM | TGI [8]: 6.61 µM | TGI [9]: 1.8 µM | TGI [10]: 20.7 µM

CCCCCCCCCCCCCCCC(=O)OCCOCCOCCOCCOCCOC(=O)CCCCCCCCCCCCCCC
TGI [2]: > 100 µM | TGI [3]: > 100 µM | TGI [4]: > 100 µM | TGI [5]: > 100 µM | TGI [6]: > 100 µM | TGI [7]: > 100 µM | TGI [8]: > 100 µM | TGI [9]: > 100 µM | TGI [10]: > 100 µM

NC(Cc1c[nH]c2ccc([N+](=O)[O-])cc12)C(=O)O (stereo unspecified)
TGI [2]: > 100 µM | TGI [3]: > 100 µM | TGI [4]: > 100 µM | TGI [5]: > 100 µM | TGI [6]: > 100 µM | TGI [7]: > 100 µM | TGI [8]: > 100 µM | TGI [9]: > 100 µM | TGI [10]: > 100 µM

COc1cc(-c2nc3ccccc3o2)cc(CN2CCCCC2)c1O
GI50 [1]: 2.93 µM | TGI [1]: 7.68 µM | GI50 [3]: 2.85 µM | TGI [3]: > 100 µM | GI50 [4]: 5.31 µM | TGI [4]: 20.7 µM | GI50 [5]: 2.39 µM | TGI [5]: 16.6 µM | GI50 [6]: 5.24 µM | TGI [6]: 71.9 µM | GI50 [7]: 12.3 µM | TGI [7]: > 100 µM | GI50 [8]: 20.3 µM | TGI [8]: 89.8 µM | GI50 [9]: 4.06 µM | TGI [9]: > 100 µM | GI50 [10]: 9.48 µM | TGI [10]: > 71.8 µM

COc1cc2c3c(n(CCCNCCCNCCN)c(=O)c2cc1OC)-c1cc2c(cc1C3=O)OCO2
GI50 [1]: 37.9 µM | TGI [1]: > 100 µM | GI50 [2]: 20.9 µM | TGI [2]: 95.2 µM | GI50 [3]: 17.2 µM | TGI [3]: 49 µM | GI50 [5]: 85 µM | TGI [5]: > 100 µM | GI50 [6]: 9.86 µM | TGI [6]: 43.9 µM | GI50 [7]: > 100 µM | TGI [7]: > 100 µM | GI50 [8]: 26.2 µM | TGI [8]: 82 µM | GI50 [9]: 10.1 µM | TGI [9]: 32.2 µM | GI50 [10]: 18.6 µM | TGI [10]: 55.6 µM

C[N+](C)(C)c1cc[c]([Sn]([c]2ccc([N+](C)(C)C)cc2)([c]2ccc([N+](C)(C)C)cc2)[c]2ccc([N+](C)(C)C)cc2)cc1
GI50 [1]: > 100 µM | TGI [1]: > 100 µM | GI50 [2]: > 100 µM | TGI [2]: > 100 µM | GI50 [3]: > 100 µM | TGI [3]: > 100 µM | GI50 [4]: > 100 µM | TGI [4]: > 100 µM | GI50 [5]: > 100 µM | TGI [5]: > 100 µM | GI50 [6]: > 100 µM | TGI [6]: > 100 µM | GI50 [7]: > 100 µM | TGI [7]: > 100 µM | GI50 [8]: > 100 µM | TGI [8]: > 100 µM | GI50 [10]: > 100 µM | TGI [10]: > 100 µM

Cn1cc(C2=C(c3cn(CCCN)c4ccccc34)C(=O)NC2=O)c2ccccc21
GI50 [1]: 3.44 µM | TGI [1]: 6.86 µM | GI50 [2]: 4.74 µM | TGI [2]: 18.4 µM | GI50 [3]: 5.91 µM | TGI [3]: 12.5 µM | GI50 [4]: 9.52 µM | TGI [4]: > 25 µM | GI50 [5]: 5.44 µM | TGI [5]: 14.2 µM | GI50 [6]: 2.53 µM | TGI [6]: 13.8 µM | GI50 [8]: 4.75 µM | TGI [8]: 14.2 µM | GI50 [9]: 2.59 µM | TGI [9]: 12.1 µM | GI50 [10]: 4.22 µM | TGI [10]: 12.9 µM

Cc1nc2sc3c(N)ncnc3c2c(C)c1C
GI50 [1]: > 25 µM | TGI [1]: > 25 µM | GI50 [2]: > 25 µM | TGI [2]: > 25 µM | GI50 [3]: > 25 µM | TGI [3]: > 25 µM | GI50 [4]: > 25 µM | TGI [4]: > 25 µM | GI50 [5]: > 25 µM | TGI [5]: > 25 µM | GI50 [6]: > 25 µM | TGI [6]: > 25 µM | GI50 [8]: > 25 µM | TGI [8]: > 25 µM | GI50 [9]: > 25 µM | TGI [9]: > 25 µM | GI50 [10]: > 25 µM | TGI [10]: > 25 µM

Cn1c(=O)c(Oc2ccc(F)cc2F)cc2cnc(N[C@@H]3CCOC3)nc21
GI50 [1]: > 25 µM | TGI [1]: > 25 µM | GI50 [2]: > 25 µM | TGI [2]: > 25 µM | GI50 [3]: > 25 µM | TGI [3]: > 25 µM | GI50 [4]: > 25 µM | TGI [4]: > 25 µM | GI50 [5]: > 25 µM | TGI [5]: > 25 µM | GI50 [6]: > 25 µM | TGI [6]: > 25 µM | GI50 [8]: > 25 µM | TGI [8]: > 25 µM | GI50 [9]: > 25 µM | TGI [9]: > 25 µM | GI50 [10]: > 25 µM | TGI [10]: > 25 µM

NCCCNc1nc2ccccc2c2c(=O)c3cccc(Cl)c3sc12
GI50 [1]: 1.63 µM | TGI [1]: 3.02 µM | GI50 [4]: 1.55 µM | TGI [4]: 3.04 µM | GI50 [6]: 0.606 µM | TGI [6]: 2.99 µM | GI50 [7]: 1.43 µM | TGI [7]: 2.8 µM | GI50 [8]: 1.61 µM | TGI [8]: 3.05 µM

COc1ccc2c(c1)CCc1cc(OC)ccc1/[N+]([O-])=[N+]\2[O-]
TGI [1]: 44 µM | TGI [2]: 45.2 µM | TGI [3]: > 25.1 µM | TGI [4]: 52.7 µM | TGI [5]: 46 µM | TGI [6]: > 42.7 µM | TGI [7]: 42.5 µM | TGI [8]: 18.6 µM | TGI [9]: 5.74 µM
